Measurements from PMC3525754 (Biochemistry, 2012).
pKi: −log10 of the molar value. One block for each compound: values may come before it.

How the values were obtained:
[1] = biological target: T1, DrPRODH (proline dehydrogenase from Deinococcus radiodurans R1) (Deinococcus radiodurans, UniProt Q9RW55); test: X-ray crystal structure, […] Å; format: binding; conditions: oxidized enzyme complexed with THFA; two ribityl conformations
[2] = biological target: T1, DrPRODH (proline dehydrogenase from Deinococcus radiodurans R1); test: steady-state CoQ1 reduction, absorbance […] nm; format: biochemical
[3] = biological target: T1, DrPRODH (proline dehydrogenase from Deinococcus radiodurans R1); test: X-ray crystal structure, […] Å; format: binding; conditions: crystal reduced by soaking in 50 mM sodium dithionite

T1 sequence (Q9RW55 whole entry): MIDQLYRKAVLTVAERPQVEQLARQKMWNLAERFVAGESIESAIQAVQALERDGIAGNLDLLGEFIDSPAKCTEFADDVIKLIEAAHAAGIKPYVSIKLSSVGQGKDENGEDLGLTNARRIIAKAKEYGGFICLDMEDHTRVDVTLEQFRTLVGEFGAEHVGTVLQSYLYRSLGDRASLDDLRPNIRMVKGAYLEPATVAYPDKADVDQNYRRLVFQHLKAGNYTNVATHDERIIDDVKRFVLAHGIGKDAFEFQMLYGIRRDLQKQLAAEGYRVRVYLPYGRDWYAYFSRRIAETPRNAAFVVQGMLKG

SMILES: Cc1cc2nc3c(=O)[nH]c(=O)nc-3n(C[C@H](O)[C@H](O)[C@H](O)COP(=O)(O)OP(=O)(O)OC[C@H]3O[C@@H](n4cnc5c(N)ncnc54)[C@H](O)[C@@H]3O)c2cc1C [FAD]
X-ray crystal structure, 1.36 Å [1]: The oxidized flavin exhibits two conformations

pKi [2]: 1.42
SMILES: O=C(O)[C@@H]1CCCO1 [THFA]

SMILES: Cc1cc2c(cc1C)N(C[C@H](O)[C@H](O)[C@H](O)COP(=O)(O)OP(=O)(O)OC[C@H]1O[C@@H](n3cnc4c(N)ncnc43)[C@H](O)[C@@H]1O)c1[nH]c(=O)[nH]c(=O)c1N2 [reduced FAD]
X-ray crystal structure, 1.75 Å [3]: The reduced flavin of DrPRODHr exhibits just one ribityl conformation
